Measured values: PMC11643494, “Structure–Activity Relationship Studies in a Series of 2-Aryloxy-N-(pyrimidin-5-yl)acetamide Inhibitors of SLACK Potassium Channels” (Molecules, 2024)
Like-named read-outs stand apart in the source and are kept apart here.

How the values were obtained:
[1] = target: T1, WT human SLACK (Homo sapiens, UniProt Q5JUK3); experiment: Whole-cell automated patch clamp (APC) in CHO-K1 cells stably expressing WT human SLACK; format: cell-based; conditions: for IC50 / WT SLACK inhibition, result in words: APC; for IC50: CHO-K1 cells stably expressing WT human SLACK, averages (n ≥ 3); for Fold less potent than hit 10 (SLACK inhibition): ratio of WT SLACK APC IC50 to hit 10; for SLACK Imax: maximum inhibition at 30 µM test compound standardized to VU0606170 (set at 100%), WT human SLACK; for WT SLACK inhibition, result in words: concentrations 0.125 to 30 µM
T1 construct: host or cells: CHO-K1
T1 sequence (Q5JUK3 1-1235 isoform Q5JUK3-3): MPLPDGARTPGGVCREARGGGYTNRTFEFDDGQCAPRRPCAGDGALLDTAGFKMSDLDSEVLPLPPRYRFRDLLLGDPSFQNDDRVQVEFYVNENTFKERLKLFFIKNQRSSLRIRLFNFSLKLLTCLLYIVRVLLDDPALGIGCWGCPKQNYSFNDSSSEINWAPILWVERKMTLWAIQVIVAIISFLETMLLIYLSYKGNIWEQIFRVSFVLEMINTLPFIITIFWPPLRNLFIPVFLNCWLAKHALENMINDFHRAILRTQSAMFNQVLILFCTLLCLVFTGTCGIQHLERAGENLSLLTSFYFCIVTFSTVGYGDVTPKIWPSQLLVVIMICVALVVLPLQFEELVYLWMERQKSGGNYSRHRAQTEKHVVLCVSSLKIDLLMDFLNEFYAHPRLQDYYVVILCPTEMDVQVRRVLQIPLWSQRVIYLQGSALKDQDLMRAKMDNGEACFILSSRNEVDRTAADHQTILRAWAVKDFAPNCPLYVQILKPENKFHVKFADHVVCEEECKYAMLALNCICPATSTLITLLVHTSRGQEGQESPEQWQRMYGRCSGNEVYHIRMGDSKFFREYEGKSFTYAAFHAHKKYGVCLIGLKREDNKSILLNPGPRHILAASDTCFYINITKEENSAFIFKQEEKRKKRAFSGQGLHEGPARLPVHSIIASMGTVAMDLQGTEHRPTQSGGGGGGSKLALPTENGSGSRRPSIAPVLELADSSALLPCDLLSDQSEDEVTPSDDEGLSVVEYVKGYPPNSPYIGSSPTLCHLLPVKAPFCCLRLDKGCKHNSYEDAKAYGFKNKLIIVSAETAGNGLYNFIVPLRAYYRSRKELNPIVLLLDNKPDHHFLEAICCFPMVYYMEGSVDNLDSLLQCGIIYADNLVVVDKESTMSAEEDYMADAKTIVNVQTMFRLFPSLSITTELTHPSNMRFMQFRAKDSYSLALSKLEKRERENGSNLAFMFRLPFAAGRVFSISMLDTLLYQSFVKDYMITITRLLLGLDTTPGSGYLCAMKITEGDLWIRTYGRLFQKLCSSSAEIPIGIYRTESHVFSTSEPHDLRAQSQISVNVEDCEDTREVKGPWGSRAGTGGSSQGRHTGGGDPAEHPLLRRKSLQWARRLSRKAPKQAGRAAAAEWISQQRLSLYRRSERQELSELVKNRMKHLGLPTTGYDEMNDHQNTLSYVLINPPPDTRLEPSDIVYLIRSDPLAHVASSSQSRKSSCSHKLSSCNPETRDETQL
Protocol: Using concentrations ranging from 0.125 to 30 µM in half-log steps, a concentration–response relationship was generated for each new analog using our APC assay in CHO-K1 cells stably expressing WT SLACK. A minimum of three cells, i.e., replicates, were collected per concentration for each analog.
Automated patch clamp recording was performed with a SyncroPatch 768 PE system (Nanion, Munich, Germany) as previously described. Whole-cell recordings were performed at room temperature. Cells were harvested by first washing with PBS without Mg^2+ or Ca^2+ (Gibco, Billings, MT, USA) to remove cell culture medium, followed by dissociation with TryPLE (Gibco, Billings, MT, USA). Cells were then resuspended and diluted to 200,000 cells/mL in external solution. External solution contained 105 mM NaCl, 4 mM KCl, 1 mM MgCl2, 5 mM CaCl2, 10 mM HEPES, 40 mM N-Methyl-D-glucamine chloride, titrated to pH 7.4 with NaOH and osmolarity of 300 mOsm/kg; internal solution contained 70 mM NaCl, 70 mM KF, 10 mM KCl, 5 mM EGTA, 5mM HEPES, titrated to a pH 7.2 with KOH and osmolarity of 295 mOsm/kg.
The APC protocol was set as following: Cells were held at […] −80 mV for 100 ms, then a ramp protocol was performed from −100 mV to 80 mV at 0.4 mV/ms, hold the cell at −80 mV for another 100 ms, then steps were performed at −20 mV, 0 mV, +20 mV, +40 mV, and +60 mV for 100 ms of each step. Whole-cell currents were measured at 0 mV and normalized to current after external buffer addition.

[2] = tested on: WT SLACK; design: method as in PMID 32408169; conditions: whole-cell patch clamp electrophysiology; read-out: IC50 versus WT SLACK; cited from earlier work
[3] = tested on: hERG (Kv11.1) channel; design: method as in PMID 32408169; conditions: 10 µM; cited from earlier work
[4] = tested on: human WT SLACK; design: method as in PMID 33859800; conditions: APC; read-out: IC50 versus human WT SLACK; cited from earlier work
[5] = tested on: SLACK mutant G288S; design: method as in PMID 33859800; conditions: APC; read-out: IC50 versus SLACK mutant G288S; cited from earlier work
[6] = tested on: SLACK mutant F364L; design: method as in PMID 33859800; conditions: APC; read-out: IC50 versus SLACK mutant F364L; cited from earlier work
[7] = design: method as in PMID 33859800; conditions: mice; cited from earlier work
[8] = tested on: Kcnt1^L/L mice; design: method as in PMID 33859800; conditions: cited from earlier work
[9] = tested on: SLACK; design: method as in earlier work; conditions: patent application, no specific values reported; cited from earlier work
[10] = tested on: WT SLACK; conditions: cited from earlier work
[11] = tested on: hERG; conditions: Tl+-flux, cited from earlier work
[12] = tested on: co-cultured cortical neurons and glial cells; design: method as in PMID 33143429; conditions: cited from earlier work
[13] = tested on: A934T SLACK; conditions: cited from earlier work
[14] = tested on: G288S SLACK; design: method as in PMID 38893312; conditions: whole-cell APC; read-out: IC50 versus G288S SLACK; cited from earlier work
[15] = tested on: WT SLACK; design: method as in PMID 38782404; conditions: patch clamp; read-out: IC50 versus WT SLACK; cited from earlier work
[16] = tested on: WT SLICK; design: method as in PMID 38782404; conditions: read-out: IC50 versus WT SLICK; cited from earlier work
[17] = tested on: G288S SLACK; design: method as in PMID 38782404; conditions: read-out: IC50 versus G288S SLACK; cited from earlier work
[18] = tested on: A934T SLACK; design: method as in PMID 38782404; conditions: read-out: IC50 versus A934T SLACK; cited from earlier work
[19] = tested on: hERG; design: method as in PMID 38782404; conditions: cited from earlier work
[20] = tested on: KV7.2; design: method as in PMID 38782404; conditions: cited from earlier work
[21] = design: method as in PMID 38782404; conditions: human liver microsomes; cited from earlier work
[22] = design: method as in PMID 38782404; conditions: cited from earlier work
[23] = whole-cell patch clamp electrophysiology, read-out: IC50 versus WT SLACK

Q: Which IC50 [1] does the source give for `CC(C)(Nc1ccc(Cl)cc1)C(=O)Nc1cnc(Oc2ccccc2F)nc1` [Analog 69] here?
A: 2.7 µM

Q: And the “Fold less potent than hit 10 (SLACK inhibition)” value [1]?
A: ~2 fold

Q: What does the source list for `CC(C)(Cc1ccc(Cl)cc1)C(=O)Nc1cnc(Oc2ccccc2F)nc1` [Analog 73]?
A: IC50 [1]: 7.2 µM; Fold less potent than hit 10 (SLACK inhibition) [1]: 5 fold

Q: Which results are given for `O=C(CCc1ccc(Cl)cc1)Nc1cnc(Oc2ccccc2F)nc1` [Analog 74]?
A: IC50 [1]: 5.1 µM; SLACK Imax [1]: 102%

Q: With `O=C(COc1ccc(Cl)cc1)Nc1cnc(Oc2ccccc2F)nc1` [Analog 75] as the molecule, how does the “WT SLACK inhibition, result in words” value [1] read?
A: inactive

Q: With `O=C(Nc1cnc(Oc2ccccc2F)nc1)C(F)(F)Oc1ccc(Cl)cc1` [Analog 79] as the molecule, how does the IC50 [1] read?
A: 2.1 µM

Q: For `CNCc1ccc(Cl)cc1` [Analog 80], which “WT SLACK inhibition, result in words” value [1] is on record?
A: only a weak inhibitor

Q: With `CN(Cc1ccc(Cl)cc1)C(=O)Nc1cnc(Oc2ccccc2F)nc1` [Analog 82] as the molecule, how does the IC50 [1] read?
A: > 10 µM

Q: And the “SLACK Imax” value [1]?
A: 79%

Q: Which IC50 [1] does the source give for `CC(C)(Oc1ccc(Cl)cc1)C(=O)Nc1ccc(Oc2ccccc2F)nc1` [Analog 86] here?
A: 3.1 µM

Q: What about the “Fold less potent than hit 10 (SLACK inhibition)” value [1] of the same molecule?
A: ~2 fold

Q: For `CC(C)(Oc1ccc(Cl)cc1)C(=O)Nc1cnc(Oc2ccccc2F)c(C#N)c1` [Analog 87], which IC50 [1] is on record?
A: 1.8 µM

Q: What does the source list for `CC(C)(Oc1ccc(Cl)cc1)C(=O)Nc1ccc(Oc2ccccc2F)cc1` [Analog 88]?
A: IC50 [1]: 4.9 µM; Fold less active than pyridine 86 ([1]; WT SLACK APC IC50): 1.6 fold; SLACK Imax [1]: 92%; Fold less potent than hit 10 (SLACK inhibition) [1]: 3.5 fold

Q: Which results are given for `CC(C)(Oc1ccc(Cl)cc1)C(=O)Nc1ccc(Oc2ccccc2F)cn1` [Analog 89]?
A: IC50 [1]: > 10 µM; WT SLACK inhibition, result in words [1]: only weak inhibitors; SLACK Imax [1]: 52%

Q: For `CC(C)(Oc1ccc(Cl)cc1)C(=O)Nc1cnc(Oc2ccccc2F)cn1` [Analog 90], which IC50 [1] is on record?
A: > 10 µM

Q: What about the “WT SLACK inhibition, result in words” value [1] of the same molecule?
A: only weak inhibitors

Q: What about the “SLACK Imax” value [1] of the same molecule?
A: 50%

Q: With `Cc1cccc(CC(=O)Nc2cnn(-c3cccc(C(=O)NCc4ccccc4-n4cncn4)c3)c2)c1` [Compound 1] as the molecule, how does the IC50 [2] read?
A: 3200 nM

Q: And the “hERG (Kv11.1) channel blockade” value [3]?
A: almost completely blocked the channel

Q: For `O=C(Nc1cccc(C(F)(F)F)c1)c1ccc2nc(N3C(=O)c4ccccc4C3=O)sc2c1` [Compound 2], which IC50 [2] is on record?
A: 3000 nM

Q: What about the “hERG (Kv11.1) channel blockade” value [3] of the same molecule?
A: 10–20%

Q: Which IC50 [2] does the source give for `O=C(Nc1cccc(C(F)(F)F)c1)c1ccc(CSc2nnnn2-c2ccccc2)cc1` [Compound 3] here?
A: 1600 nM

Q: And the “hERG (Kv11.1) channel blockade” value [3]?
A: 45%

Q: What does the source list for `C[C@H](NC(=O)c1cc(C(F)(F)F)nn1C)c1nc(-c2ccnc(C(F)(F)F)c2)no1` [Compound 4]?
A: IC50 [4]: […]; IC50 [5]: 220 nM; IC50 [6]: 1800 nM; bioavailability [7]: complete bioavailability; clearance [7]: 2.0 mL/min/kg; anticonvulsant effects [8]: anticonvulsant effects were observed

Q: With `O=C(N[C@@H]1CCc2cc(Cl)ccc21)c1ccc(S(=O)(=O)N2CCCC2)s1` [Compound 5] as the molecule, how does the IC50 [9] read?
A: < 1000 nM

Q: And the “SLACK IC50” value [9]?
A: less than one micromolar

Q: What does the source list for `COc1ccc(Cl)cc1NC(=O)CN1CCN(S(=O)(=O)N2CCC(C)CC2)CC1` [Compound 6]?
A: IC50 [10, 23]: 1700 nM; IC50 [11]: > 10 µM; frequency of calcium (Ca2+) oscillations, result in words [12]: inhibiting the frequency of calcium (Ca^2+) oscillations

Q: What does the source list for `Cc1ccc2cccc(S(=O)(=O)N3CC(c4nc(-c5ccc(F)cc5)no4)C3)c2n1` [Compound 7]?
A: IC50 ([10]; whole-cell APC, read-out: APC IC50 versus WT SLACK): 320 nM; hERG activity, result in words ([11]; 10 µM): inactive; A934T SLACK inhibition, result in words [13]: potent inhibitor

Q: With `CCCCN(Cc1ccc(F)cc1)c1nc2c(c(=O)n(Cc3cccc(OC)c3)c(=O)n2C)n1C` [Compound 8] as the molecule, how does the IC50 [10, 23] read?
A: 700 nM

Q: And the IC50 ([13]; whole-cell APC, read-out: IC50 versus A934T SLACK)?
A: 590 nM

Q: And the IC50 [14]?
A: 710 nM

Q: Which IC50 [15] does the source give for `O=S(=O)(Nc1ccc2c(c1)CCN2Cc1ccc(C(F)(F)F)cc1C(F)(F)F)C1CCCCC1` [Compound 9] here?
A: 200 nM

Q: What about the IC50 [16] of the same molecule?
A: 1300 nM

Q: What about the IC50 [17] of the same molecule?
A: 300 nM

Q: And the IC50 [18]?
A: 280 nM

Q: What about the “activity on hERG channels, result in words” value [19] of the same molecule?
A: no activity

Q: And the “activity on KV7.2 channels, result in words” value [20]?
A: no activity

Q: What about the “metabolic stability (clearance), result in words” value [21] of the same molecule?
A: low clearance compound

Q: And the “plasma protein binding, result in words” value [22]?
A: highly bound to plasma proteins
